Laboratory results: publication PMC5361079 (Scientific Reports, 2017)
Like-named read-outs stand apart in the source and are kept apart here.

Legend:
hiPSC-CMs = experiment: Intracellular prodrug, cleavage intermediate metabolite and NTP metabolite concentrations in hiPSC-CMs; assay type: in vitro ADME, human; conditions: for Intracellular Concentration, Cleavage Intermediate Metabolite / Intracellular Concentration, NTP Metabolite: BLOQ = below 17 pmol/million cells; for Effect of CatA inhibitor on sofosbuvir cleavage intermediate metabolite in hiPSC-CMs: hiPSC-CMs incubated with sofosbuvir
Method: Approximately 18 h before dosing, iCell hiPSC-CMs were switched to iCell cardiomyocyte maintenance media free of Penicillin/Streptomycin. […] […] After the corresponding treatment, cells were washed 2x with 200 μL of ice-cold magnesium- and calcium-free PBS buffer. Cells were then lysed in 100 μL of ice-cold lysis solution (70/30 methanol/water containing 20 mM EDTA and 20 mM EGTA, pH 8) by pipetting up and down 5 times. Plates were sealed and transferred on dry ice for determination of prodrug, cleavage intermediate metabolite, and NTP metabolite concentrations. Intracellular prodrug concentrations were measured using a reversed phase HPLC- high resolution mass spectrometry method. A dimethylhexylamine based ion-pairing HPLC-MS/MS method was used to measure intracellular cleavage intermediate metabolite and NTP metabolite concentrations. Intracellular concentrations (pmol/million cells) of prodrug, cleavage intermediate metabolite, and NTP metabolite were quantitated against calibration standards of the same analytes prepared from control iCell hiPSC-CM lysates.
For prodrug analyses, full scan high resolution mass spectrometry data was collected using an Exactive™ Orbitrap mass spectrometer with an electrospray source operated in the positive ion mode. Prodrug chromatograms were extracted from full scan high resolution mass spectrometry data for the masses indicated in Supplementary Table 5. Absence of endogenous interference(s) was verified by extracting the same ion from full scan high resolution mass spectrometry chromatograms of unspiked control cell lysates. For the cleavage intermediate metabolite and NTP metabolite an electrospray MS/MS method run on a SCIEX API 4000 mass spectrometer with turboV ionspray source was used in negative ion mode monitoring the transitions indicated in Supplementary Table 5. Absence of endogenous interference(s) was verified by monitoring of the same MRM transitions for unspiked control cell lysates. Measured intracellular prodrug, cleavage intermediate metabolite, and NTP metabolite concentrations (in pmol/million cells units) were tabulated (Table 2).

hiPSC-CM syncytia = experiment: Spontaneous FP rate and IMP amplitude/beating rate in hiPSC-CM syncytia (RTCA CardioECR / RTCA Cardio); assay type: cell-based, human; conditions: for Effect on FP rate / Effect on IMP amplitude: prodrug co-administered with 0.3 μM amiodarone, steady state (4 h), spontaneously beating hiPSC-CM syncytia
Method: hiPSC-CMs (iCells®) from Cellular Dynamics International (CDI, Madison, WI, USA) were seeded onto 48-well CardioECR or 96-well Cardio E-Plates® (ACEA Biosciences Inc., San Diego, CA, USA) coated with 10 μg/mL fibronectin (Sigma Aldrich, Catalog# F1141) at 30,000 cells/well, following manufacturer’s recommendations. Cells were maintained in culture (37 °C, 5% CO2) for a period of 14 days with iCell Maintenance® media (CDI, Madison, WI, USA) exchanged every 2–3 days. Compound addition was only performed on or after Day 14 following cell seeding.
Compound stock solutions were prepared in 100% DMSO or H2O. On the day of compound addition, the media was exchanged with fresh iCell Maintenance® media and allowed to equilibrate for at least 3 h in the incubator. The plates were read on an xCELLigence® RTCA CardioECR or RTCA Cardio (ACEA Biosciences Inc., San Diego, CA, USA). Control pre-reads to establish a baseline were recorded for at least 45 minutes (4 reads at 15-min intervals) prior to compound addition. The compound stock solutions were diluted into iCell Maintenance® media and quickly added to the plate. The plate was continuously monitored for at least 18 h following compound addition. IMP data were sampled at 12 ms (83 Hz), while FP rate data were collected at 0.1 ms (10 KHz). Attachment, growth and viability of syncytia were monitored by means of the baseline IMP signal, as previously described. IMP and FP signals were only interpreted if the baseline IMP was maintained throughout the measurement period (usually ≤18 hrs) at ≥70% of the value before test compound application (pre-read value).

Cav1.2 = target: T1, Cav1.2 (Homo sapiens, UniProt Q13936); experiment: Ca2+ influx in Cav1.2/HEK-293 cells (FDSS); assay type: cell-based; conditions: for IC50: Cav1.2/HEK-293, compound alone
T1 construct: expressed in transfected cells
Method: The HEK-293 cell line overexpressing Cav1.2 channel proteins was maintained in-house. HEK-293 cells transiently overexpressing Cav1.3 channel proteins were purchased from ChanTest (Charles River Laboratories, Cleveland, OH, USA). The assay was conducted as previously described. Briefly, on experiment day, cells were incubated with Codex ACTOne® dye (Codex Biosolutions, Inc., Gaithersburg, MD, USA) formulated in PPB buffer containing 25 mM potassium (in mM: 127 NaCl, 25 KCl 0.005 CaCl2, 1.7 MgCl2, 10 HEPES, pH = 7.2 with NaOH), or PPB buffer containing 1 mM potassium (in mM: 151 NaCl, 1 KCl 0.005 CaCl2, 1.7 MgCl2, 10 HEPES, pH = 7.2 with NaOH) for 1 h at room temperature, then test compounds were added for another 30-minute incubation at room temperature with a final volume of 100 μL. The Hamamatsu FDSS/μCell imaging platform simultaneously collected Ca^2+ signals from 96-well plates, at a sampling rate of 16 Hz for 20 seconds as baseline, then a trigger buffer (containing in mM: 119 NaCl, 25 KCl, 4 CaCl2, 1.7 MgCl2, 10 HEPES, pH = 7.2 with NaOH) was added using the dispenser of the FDSS/μCell instrument to generate Ca^2+ transient for 40 seconds. The peak amplitude within the latter 40 seconds minus the average amplitude of the first 20 seconds is the final Ca^2+ transient response of each well. […] Relative response of each well was calculated as follows: […]

[1] = hiPSC-CMs, 10 μM prodrug alone, 4 Hours
[2] = hiPSC-CMs, 10 μM prodrug alone, 30 Min
[3] = hiPSC-CMs, 10 μM prodrug + 0.3 μM amiodarone, 4 Hours
[4] = hiPSC-CMs, 10 μM prodrug + 0.3 μM amiodarone, 30 Min
[5] = read-out: IC50, Ca2+ influx inhibition

T1 sequence (Q13936 whole entry): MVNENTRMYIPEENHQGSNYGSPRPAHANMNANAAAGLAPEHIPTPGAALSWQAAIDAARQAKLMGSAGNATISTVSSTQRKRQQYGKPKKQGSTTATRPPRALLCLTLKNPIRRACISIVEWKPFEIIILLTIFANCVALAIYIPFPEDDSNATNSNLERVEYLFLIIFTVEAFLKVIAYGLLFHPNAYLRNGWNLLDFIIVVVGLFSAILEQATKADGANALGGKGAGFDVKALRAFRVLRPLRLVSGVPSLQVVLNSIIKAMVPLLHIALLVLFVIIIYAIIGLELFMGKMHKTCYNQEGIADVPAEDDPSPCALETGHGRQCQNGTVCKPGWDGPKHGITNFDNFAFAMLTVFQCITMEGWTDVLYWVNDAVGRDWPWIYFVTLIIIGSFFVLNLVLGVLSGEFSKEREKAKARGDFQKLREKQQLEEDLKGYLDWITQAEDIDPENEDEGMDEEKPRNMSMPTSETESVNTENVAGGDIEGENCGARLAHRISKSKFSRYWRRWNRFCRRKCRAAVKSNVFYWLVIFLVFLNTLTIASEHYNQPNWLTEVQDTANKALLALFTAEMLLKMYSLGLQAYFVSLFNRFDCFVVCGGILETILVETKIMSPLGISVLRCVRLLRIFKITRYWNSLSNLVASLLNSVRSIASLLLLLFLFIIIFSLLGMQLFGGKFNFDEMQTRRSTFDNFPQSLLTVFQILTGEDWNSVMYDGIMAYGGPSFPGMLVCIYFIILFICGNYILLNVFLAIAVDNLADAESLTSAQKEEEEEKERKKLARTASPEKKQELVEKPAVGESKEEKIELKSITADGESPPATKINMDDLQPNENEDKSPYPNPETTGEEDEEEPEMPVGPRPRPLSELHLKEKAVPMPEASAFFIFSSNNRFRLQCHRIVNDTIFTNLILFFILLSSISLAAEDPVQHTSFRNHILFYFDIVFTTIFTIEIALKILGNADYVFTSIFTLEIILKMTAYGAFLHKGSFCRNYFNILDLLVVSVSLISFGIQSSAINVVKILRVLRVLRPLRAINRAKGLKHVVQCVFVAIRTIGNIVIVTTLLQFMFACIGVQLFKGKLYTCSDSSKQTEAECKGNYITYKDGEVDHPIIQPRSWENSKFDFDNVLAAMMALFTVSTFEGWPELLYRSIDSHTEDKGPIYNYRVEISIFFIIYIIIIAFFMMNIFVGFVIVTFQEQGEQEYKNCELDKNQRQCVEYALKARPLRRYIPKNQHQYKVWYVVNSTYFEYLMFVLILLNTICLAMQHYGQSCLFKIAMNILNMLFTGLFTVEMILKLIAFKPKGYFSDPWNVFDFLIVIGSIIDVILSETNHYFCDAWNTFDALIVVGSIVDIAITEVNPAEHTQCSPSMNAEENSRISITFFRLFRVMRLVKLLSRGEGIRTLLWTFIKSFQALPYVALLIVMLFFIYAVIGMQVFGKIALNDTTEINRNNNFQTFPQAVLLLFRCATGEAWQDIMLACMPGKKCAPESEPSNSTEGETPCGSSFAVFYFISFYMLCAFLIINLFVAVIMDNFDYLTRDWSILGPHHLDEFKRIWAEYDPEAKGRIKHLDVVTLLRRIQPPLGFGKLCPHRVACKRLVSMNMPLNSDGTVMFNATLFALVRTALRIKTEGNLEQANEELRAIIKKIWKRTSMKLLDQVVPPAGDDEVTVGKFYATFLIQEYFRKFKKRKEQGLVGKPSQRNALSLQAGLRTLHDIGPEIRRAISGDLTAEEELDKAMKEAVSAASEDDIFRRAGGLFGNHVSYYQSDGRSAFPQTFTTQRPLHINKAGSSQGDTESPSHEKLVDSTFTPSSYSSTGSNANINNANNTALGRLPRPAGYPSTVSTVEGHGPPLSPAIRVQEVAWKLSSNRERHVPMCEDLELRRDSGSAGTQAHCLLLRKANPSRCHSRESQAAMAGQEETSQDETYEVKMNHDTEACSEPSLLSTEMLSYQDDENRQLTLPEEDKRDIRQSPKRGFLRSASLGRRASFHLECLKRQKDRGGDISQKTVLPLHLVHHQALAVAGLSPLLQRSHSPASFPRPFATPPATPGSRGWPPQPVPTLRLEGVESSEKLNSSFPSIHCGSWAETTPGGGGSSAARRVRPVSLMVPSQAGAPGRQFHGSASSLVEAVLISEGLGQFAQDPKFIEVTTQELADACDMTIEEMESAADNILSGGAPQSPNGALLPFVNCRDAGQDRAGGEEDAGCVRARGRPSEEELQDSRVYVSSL
T1 sequence (Q08289 whole entry partner): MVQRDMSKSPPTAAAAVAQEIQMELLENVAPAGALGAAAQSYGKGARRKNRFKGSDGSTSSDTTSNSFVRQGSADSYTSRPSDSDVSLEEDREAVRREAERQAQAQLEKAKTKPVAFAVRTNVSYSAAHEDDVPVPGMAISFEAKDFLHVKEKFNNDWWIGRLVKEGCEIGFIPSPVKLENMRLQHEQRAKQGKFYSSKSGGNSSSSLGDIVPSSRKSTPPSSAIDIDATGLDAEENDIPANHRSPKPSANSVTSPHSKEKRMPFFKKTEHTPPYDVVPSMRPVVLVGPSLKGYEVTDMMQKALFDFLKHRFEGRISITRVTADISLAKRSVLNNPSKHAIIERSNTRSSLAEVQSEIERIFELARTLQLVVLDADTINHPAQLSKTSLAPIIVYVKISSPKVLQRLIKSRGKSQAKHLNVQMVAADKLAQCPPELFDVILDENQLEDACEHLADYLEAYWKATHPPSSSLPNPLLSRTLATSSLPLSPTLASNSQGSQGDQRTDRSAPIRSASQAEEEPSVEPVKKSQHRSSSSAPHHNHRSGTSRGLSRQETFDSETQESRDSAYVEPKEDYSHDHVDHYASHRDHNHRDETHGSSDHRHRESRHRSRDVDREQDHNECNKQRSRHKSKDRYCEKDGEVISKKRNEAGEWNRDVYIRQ
T1 sequence (P54289 25-946 partner limits assumed): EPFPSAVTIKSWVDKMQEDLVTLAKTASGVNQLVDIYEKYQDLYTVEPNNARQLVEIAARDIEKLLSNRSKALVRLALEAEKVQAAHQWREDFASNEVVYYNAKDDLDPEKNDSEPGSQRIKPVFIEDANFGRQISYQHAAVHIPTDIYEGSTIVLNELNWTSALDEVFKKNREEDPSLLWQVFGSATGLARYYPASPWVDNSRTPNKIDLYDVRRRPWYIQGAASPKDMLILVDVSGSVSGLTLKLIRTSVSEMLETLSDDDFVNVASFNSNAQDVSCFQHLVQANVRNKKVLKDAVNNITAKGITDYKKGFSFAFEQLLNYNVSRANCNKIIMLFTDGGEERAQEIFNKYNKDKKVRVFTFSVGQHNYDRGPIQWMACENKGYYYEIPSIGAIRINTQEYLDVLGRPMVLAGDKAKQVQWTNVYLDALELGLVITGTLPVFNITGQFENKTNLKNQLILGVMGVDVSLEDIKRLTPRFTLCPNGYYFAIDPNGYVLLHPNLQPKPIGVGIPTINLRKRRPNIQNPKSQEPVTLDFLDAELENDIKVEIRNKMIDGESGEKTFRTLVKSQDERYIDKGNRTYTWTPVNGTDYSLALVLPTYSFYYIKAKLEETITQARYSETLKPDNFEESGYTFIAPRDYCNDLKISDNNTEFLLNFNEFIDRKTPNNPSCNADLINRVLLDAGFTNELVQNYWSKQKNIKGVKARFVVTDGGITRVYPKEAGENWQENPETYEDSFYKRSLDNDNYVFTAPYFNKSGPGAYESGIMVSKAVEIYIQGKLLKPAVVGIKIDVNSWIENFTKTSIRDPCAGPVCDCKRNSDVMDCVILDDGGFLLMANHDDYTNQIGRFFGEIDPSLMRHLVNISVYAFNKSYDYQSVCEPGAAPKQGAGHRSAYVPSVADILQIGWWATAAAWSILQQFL
T1 sequence (P54289 947-1103 partner limits assumed): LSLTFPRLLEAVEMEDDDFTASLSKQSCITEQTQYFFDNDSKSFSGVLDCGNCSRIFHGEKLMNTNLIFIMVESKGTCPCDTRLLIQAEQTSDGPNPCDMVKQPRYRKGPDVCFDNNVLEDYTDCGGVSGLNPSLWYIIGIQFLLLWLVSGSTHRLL

Structure (SMILES) | Intracellular Concentration, Prodrug (hiPSC-CMs; [1]) | Intracellular Concentration, Cleavage Intermediate Metabolite (hiPSC-CMs; [1]) | Intracellular Concentration, NTP Metabolite (hiPSC-CMs; [1]) | Intracellular Concentration, Prodrug (hiPSC-CMs; [2]) | Intracellular Concentration, Cleavage Intermediate Metabolite (hiPSC-CMs; [2]) | Intracellular Concentration, NTP Metabolite (hiPSC-CMs; [2]) | Reduction of cleavage intermediate metabolite level compared to sofosbuvir (hiPSC-CMs; hiPSC-CMs, after 4-h incubation) | Effect of CatA inhibitor on L-ala,SP prodrug + amiodarone effects (FP rate, IMP amplitude) (hiPSC-CM syncytia; 30 min pre-incubation and continued incubation, Ebel 3 or 10 μM with sofosbuvir or MNI-1, SAR164653 30 μM with 1 μM MNI-1, 0.3 μM amiodarone) | Effect of CatA inhibitor on sofosbuvir cleavage intermediate metabolite in hiPSC-CMs (hiPSC-CMs) | Effect on FP rate (hiPSC-CM syncytia) | Effect on IMP amplitude (hiPSC-CM syncytia) | Intracellular Concentration, Prodrug (hiPSC-CMs; [3]) | Intracellular Concentration, Cleavage Intermediate Metabolite (hiPSC-CMs; [3]) | Intracellular Concentration, NTP Metabolite (hiPSC-CMs; [3]) | Intracellular Concentration, Prodrug (hiPSC-CMs; [4]) | Intracellular Concentration, Cleavage Intermediate Metabolite (hiPSC-CMs; [4]) | Intracellular Concentration, NTP Metabolite (hiPSC-CMs; [4]) | IC50 (Cav1.2; n = 3 for each test, read-out: IC50 in repeat tests) | IC50 (Cav1.2; [5]) | inhibition at 30 min, 150 µM (Cav1.2; HEK-293 cells overexpressing Cav1.2 channel proteins, pH 7.2, Cav1.2/HEK-293, 150 μM, compound alone, read-out: inhibition at maximal tested concentration)
CC(C)OC(=O)C(C)NP(=O)(OCC1OC(n2ccc(=O)[nH]c2=O)C(C)(F)C1O)Oc1ccccc1 (stereo not shown) [MNI-6] | 65.5 ± 5.8 pmol/million cells | B LOQ | B LOQ | 46.6 ± 3.1 pmol/million cells | B LOQ | B LOQ |  |  |  |  |  |  |  |  |  |  |  |  |  | 
CC(C)OC(=O)C(C)NP(=O)(OCC1OC(n2ccc(=O)[nH]c2=O)C(C)(F)C1O)Oc1ccccc1 (stereo not shown) [MNI-5] | 97.1 ± 36.8 pmol/million cells | 121.0 ± 6.24 pmol/million cells | B LOQ | 53.6 ± 14.2 pmol/million cells | B LOQ | B LOQ | ~ 80% |  |  |  |  |  |  |  |  |  |  |  |  | 
CC[C@@H](C)[C@@H](O)[C@H](C)C(=O)[C@H](C)/C=C(\C)C[C@H](C)[C@@H]1OC(=O)[C@H]1CC [Ebel, ebelactone B, reference compound] |  |  |  |  |  |  |  | concentration-dependent exacerbation | transiently inhibited the formation of the sofosbuvir cleavage intermediate metabolite to levels below the limit of quantitation after 30 min incubation |  |  |  |  |  |  |  |  |  |  | 
C#C[C@]1(C)[C@@H](O)[C@@H](COP(=O)(N[C@H](C)C(=O)OC(C)C)Oc2ccccc2)O[C@H]1n1ccc(=O)[nH]c1=O (stereo partly drawn) [MNI-4, isopropyl (2R)-2-[[[(2R,3R,4R,5R)-5-(2,4-dioxopyrimidin-1-yl)-4-ethynyl-3-hydroxy-4-methyl-tetrahydrofuran-2-yl]methoxy-phenoxy-phosphoryl]amino]propanoate] | 77.4 ± 6.7 pmol/million cells | BLOQ | BLOQ | 75.4 ± 5.1 pmol/million cells | BLOQ | BLOQ |  |  |  | lack of effects | lack of effects | 78.7 ± 6.4 pmol/million cells | BLOQ | BLOQ | 84.8 ± 12.4 pmol/million cells | BLOQ | BLOQ | 27 to 45 µM | ~36 µM | 
CC(C)OC(=O)[C@H](C)NP(=O)(OC[C@H]1O[C@@H](n2ccc(=O)[nH]c2=O)[C@](C)(Cl)[C@@H]1O)Oc1ccccc1 (stereo partly drawn) [MNI-3, isopropyl (2S)-2-[[[(2R,3R,4R,5R)-4-chloro-5-(2,4-dioxopyrimidin-1-yl)-3-hydroxy-4-methyl-tetrahydrofuran-2-yl]methoxy-phenoxy-phosphoryl]amino]propanoate] | 106.9 ± 10.1 pmol/million cells |  |  | 97.3 ± 14.0 pmol/million cells |  | BLOQ |  |  |  | Concentration-dependent, steady-state effects | Concentration-dependent, steady-state effects | 94.0 ± 6.0 pmol/million cells |  |  | 89.8 ± 12.5 pmol/million cells |  | BLOQ |  |  | 
COc1cc(C(=O)N[C@@H](CC(=O)O)c2ccccc2C)nn1-c1ccccc1F [SAR164653, reference compound] |  |  |  |  |  |  |  |  | decreased, with concentration and time dependence |  |  |  |  |  |  |  |  |  |  | 
C#C[C@]1(C)[C@@H](O)[C@@H](COP(=O)(N[C@@H](C)C(=O)OC(C)C)Oc2ccccc2)O[C@H]1n1ccc(=O)[nH]c1=O (stereo partly drawn) [MNI-1, isopropyl (2S)-2-[[[(2R,3R,4R,5R)-5-(2,4-dioxopyrimidin-1-yl)-4-ethynyl-3-hydroxy-4-methyl-tetrahydrofuran-2-yl]methoxy-phenoxy-phosphoryl]amino]propanoate] | 69.1 ± 6.8 pmol/million cells |  | Detected but BLOQ | 75.4 ± 2.3 pmol/million cells |  | BLOQ |  |  |  | Concentration-dependent, steady-state effects | Concentration-dependent, steady-state effects | 70.5 ± 14.4 pmol/million cells |  | Detected but BLOQ | 69.9 ± 5.3 pmol/million cells |  | BLOQ |  | > 150 µM | 21%
